# Key:
# [1] = system: p-MLKL; experiment: Phospho-MLKL immunofluorescence in HT-29 cells; assay type: cell-based, human; conditions: HT-29, immunofluorescence
# Experimental: HT-29 cells were fixed in 4% paraformaldehyde for 10 min. To stain phospho-MLKL, cells were permeabilized with 0.25% Triton X-100 for 10 min. After incubation in a blocking buffer (10% fetal bovine serum in DPBS) for 30 min, the primary antibody to phospho-MLKL was incubated overnight at 4 °C, and FITC-conjugated secondary antibody (goat anti-rabbit IgG, 1:250, dilution, Invitrogen) was incubated for 1 h at room temperature. A mounting medium containing DAPI (VECTASHIELD, Cat No. 94010, Vector Laboratories) was used for counterstaining. Representative images were taken by confocal microscope.
# HT-29 cells were pretreated with four tested inhibitors for 2 h and then treated with TSZ (6 h for immunoblotting, 24 h for cell death assay). Cell lysates were analyzed by immunoblotting, and cell viability was analyzed by MTT assay or phase-contrast microscopy. The results are presented as the means ± SEM. *P < 0.05, **P < 0.01, ***P < 0.001. b Protection of necroptosis by HS-1371 treatment is similar with dabrafenib, which abolished downstream events. HT-29 cells were pretreated with various necroptosis inhibitors and HS-1371 before TSZ treatment. Cell lysates were analyzed by immunoblotting, and cell viability was analyzed by MTT assay (left panel). Cells were stained with phospho-MLKL antibody and analyzed by confocal fluorescence microscopy (middle panel), and cell death was further analyzed by FACS analysis after PI staining (right panel). c HS-1371 protects cells from TNF-induced necroptosis in a dose-dependent manner. HT-29 cells were pretreated with indicated concentrations of HS-1371 and then treated with TSZ (6 h for immunoblotting, 24 h for cell death assay). Cell lysates were analyzed by immunoblotting, and cell viability was analyzed by MTT assay or phase-contrast microscopy. The results are presented as means ± SEM. *P < 0.05, **P < 0.01, ***P < 0.001 TEXT PRINTED IN THE PICTURE: (b) TSZ: 20.7 | (b) TSZ + Nec-1: 5.8 | (b) TSZ + DAB: 5.5 | (b) TSZ + 1371: 6.8 DOUBTS OF THE COPYIST ABOUT THIS PICTURE: Panel b, flow cytometry plots: the red gate numbers are printed without a measure or unit, so none is given / Panel b: the 'Untreated' control plot prints 7.7; left out because it is not a substance
# [2] = system: NF-κB pathway; experiment: TNF- or LPS-induced NF-κB signaling (immunoblot); assay type: cell-based
# Experimental: Supplementary Figure 1. Identification of HS-1371 as a novel RIP3 kinase inhibitor.
# Detailed interaction patterns in the region surrounded by DFG motif and αC helix of RIP3.
# Hydrogen bonds are indicated with dotted lines.
# Supplementary Figure 2. The effect of HS-1371 was compared with GSK’872.
# (a) Overexpression of RIP3 could induce S227 phosphorylation without stimuli. HEK293T cells were transiently transfected with Flag-hRIP3, and cells were treated with or without DAB for incubation periods. After cells were harvested, cell lysates were analyzed by […]
# kinase inhibitor. HT-29 cells were treated with HS -1371 or GSK’872 indicated concentrations for 9 h, and cell lysates were analyzed by immunoblotting.
# (c) Cytotoxicity of HS-1371 was compared with GSK’872. HT-29 cells were treated with 2 kinase inhibitors for 24 h and cell viability was analyzed by MTT assay.
# (d) Inhibition of MLKL phosphorylation by HS-1371 was compared with other two RIP3 kinases inhibitors, DAB (5 μM) and GSK’872 (5 μM). […] Cell lysates were analyzed by […]
# HeLa, L929, and MEF cells were pretreated with HS-1371 (5 μM) for 2 h, and treated with TNF (30 ng/mL) for indicated time points. Cell lysates were analyzed by immunoblotting. […]
# (a) RAW264.7 cells were treated with LPS (1 μg/mL) for indicated time points and cell lysates were analyzed by immunoblotting. […]
# [3] = system: HeLa cells; experiment: HeLa cells ectopically expressing RIP3 (immunoblot, MTT); assay type: cell-based, human
# Experimental: HEK293T, HT-29, H2009, L929, HeLa, and MEF cells were grown in Dulbecco’s Modified Eagle’s Medium (DMEM) supplemented with 10% fetal bovine serum (FBS). RAW264.7 cells were grown in Roswell Park Memorial Institute (RPMI) 1640 media supplemented with 10% FBS. To generate cell lines stably expressing the RIP3 construct, HeLa and H2009 cells were infected with pLX303-hRIP3 lentivirus.
# Cells were pretreated with DAB or HS-1371 for 2 h and then treated with TSZ (6 h for immunoblotting, 24 h for cell death assay). Cell lysates were analyzed by immunoblotting (left bottom panel), and cell viability was analyzed by MTT assay (right panel). The results are presented as means ± SEM. *P < 0.05, **P < 0.01, ***P < 0.001. c, d HS-1371 had the same effect on mouse cells. L929 (mouse sarcoma, c) and MEF (mouse embryonic fibroblast, d) cells were pretreated with inhibitors and then necroptosis was induced by TNF. Cell lysates were analyzed by immunoblotting (upper panel), and cell viability was analyzed by MTT assay (bottom panel). The results are presented as means ± SEM. *P < 0.05, **P < 0.01, ***P < 0.001
compound,measurement,setting,value
"Cc1ccc(Oc2ccnc3cc(-c4cnn(C5CCNCC5)c4)ccc23)cc1 [HS-1371, 7-(1-(Piperidin-4-yl)-1H-pyrazol-4-yl)-4-(p-tolyloxy)quinoline]",p-MLKL detection / translocation after TSZ,[1],no detection of p-MLKL
same,TNF-induced NF-κB signaling,"[2]; HT-29, HeLa(RIP3), L929, MEF, 5 μM pretreated 2 h, TNF 30 ng/mL",did not affect
same,LPS-induced induction of the NF-κB pathway,[2]; data not shown,not altered
same,basal RIP3 phosphorylation,"[3]; HeLa with ectopic RIP3, 6 h, dose-dependent",decreased
same,cell viability after TSZ,"[3]; HeLa with ectopic RIP3, TSZ 24 h, MTT, dose-dependent",gradually increased
same,TSZ-induced RIP3 phosphorylation and MLKL phosphorylation,"[3]; HeLa with ectopic RIP3, pretreated 2 h, TSZ 6 h",effectively blocked

# Reference: article PMC6148246, “HS-1371, a novel kinase inhibitor of RIP3-mediated necroptosis” (Experimental & Molecular Medicine, 2018)
